For orientation: MIC means the smallest concentration in the dilution series that meets the test's criterion for growth inhibition.

Each structure is given as a SMILES string. Converted amounts (≈) assume the structure as drawn.

Data on 34 compounds can be found in ChEMBL document CHEMBL3817833, “Synthesis and evaluation of antitubercular activity of fluorinated 5-aryl-4-(hetero)aryl substituted pyrimidines” (Bioorg Med Chem, 2016).

The assay relates to Mycobacterium tuberculosis. Description: Antimycobacterial activity against rifampin and isoniazid resistant-Mycobacterium tuberculosis Beijing harboring Ser 531 to Leu 315 and Ser to Thr in rpoB and katG genes mutation after 24 hrs by microbroth dilution method. Format: functional.
Consider `Fc1ccc(-c2cncnc2-c2cccs2)cc1`, for which the MIC amounted to 12.5 µM (≈ 3.2 µg/mL).

On to `Fc1cc(F)cc(-c2cncnc2)c1`, for which the MIC amounted to 3.64 µM (≈ 0.699 µg/mL).

`CC1COc2c(N3CCN(C)CC3)c(F)cc3c(=O)c(C(=O)O)cn1c23` (centres undefined) [OFLOXACIN] yielded an MIC of 0.28 µM (≈ 0.101 µg/mL).

`Fc1ccc(-c2cncnc2)c(F)c1`: the minimal inhibitory concentration (MIC) was 16.13 µM (≈ 3.1 µg/mL).

Regarding `c1ccc(-c2cncnc2-c2cccs2)cc1`, the MIC was 26.02 µM (≈ 6.2 µg/mL).

On to `FC(F)(F)c1ccccc1-c1cncnc1-c1cccs1`, for which the MIC amounted to 20.24 µM (≈ 6.2 µg/mL).

`FC(F)(F)c1cccc(-c2cncnc2)c1` showed an MIC of 55.76 µM (≈ 12.5 µg/mL).

For the compound `Fc1cccc(-c2cncnc2-c2ccco2)c1`, the MIC amounted to 6.24 µM (≈ 1.5 µg/mL).

For `Fc1ccccc1-c1cncnc1-c1ccco1`, the MIC turned out to be 52.03 µM (≈ 12.5 µg/mL).

In the case of `c1ccc(-c2cncnc2-c2ccco2)cc1`, the MIC came out at 1.57 µM (≈ 0.349 µg/mL).

In turn, `FC(F)(F)c1ccc(-c2cncnc2-c2ccco2)c(C(F)(F)F)c1` yielded an MIC of 1.95 µM (≈ 0.699 µg/mL).

`FC(F)(F)c1ccccc1-c1cncnc1` came in with an MIC of 27.66 µM (≈ 6.2 µg/mL).

Turning to `Fc1ccc(-c2cncnc2-c2ccco2)c(F)c1`, the minimum inhibitory concentration (MIC) worked out at 48.41 µM (≈ 12.5 µg/mL).

`Fc1ccc(-c2cncnc2)cc1`: the MIC was 71.76 µM (≈ 12.5 µg/mL).

Compound `c1ccc(-c2cncnc2)cc1` registered a minimal inhibitory concentration (MIC) of 80.03 µM (≈ 12.5 µg/mL).

`Fc1ccccc1-c1cncnc1-c1cccs1`: the MIC stood at 12.5 µM (≈ 3.2 µg/mL).

`Fc1ccc(-c2cncnc2-c2ccco2)cc1` displayed a minimum inhibitory concentration (MIC) of 52.03 µM (≈ 12.5 µg/mL).

The compound `FC(F)(F)c1cccc(-c2cncnc2-c2ccco2)c1` registered a minimal inhibitory concentration (MIC) of 43.07 µM (≈ 12.5 µg/mL).

In the case of `FC(F)(F)c1ccc(-c2cncnc2-c2cccs2)c(C(F)(F)F)c1`, the MIC came to 16.56 µM (≈ 6.2 µg/mL).

For the compound `FC(F)(F)c1ccc(-c2cncnc2-c2ccco2)cc1`, the MIC came out at 43.07 µM (≈ 12.5 µg/mL).

Compound `FC(F)(F)c1cccc(-c2cncnc2-c2cccs2)c1` came in with a minimal inhibitory concentration (MIC) of 4.9 µM (≈ 1.5 µg/mL).

Turning to `Fc1cccc(-c2cncnc2)c1`, the MIC is 35.88 µM (≈ 6.25 µg/mL).

In turn, `FC(F)(F)c1ccc(-c2cncnc2)c(C(F)(F)F)c1` displayed an MIC of 42.78 µM (≈ 12.5 µg/mL).

`FC(F)(F)c1ccc(-c2cncnc2)cc1` gave a minimal inhibitory concentration (MIC) of 55.76 µM (≈ 12.5 µg/mL).

In turn, `Fc1cccc(-c2cncnc2-c2cccs2)c1` registered an MIC of 12.5 µM (≈ 3.2 µg/mL).

In turn, `FC(F)(F)c1cc(-c2cncnc2-c2cccs2)cc(C(F)(F)F)c1` had an MIC of 33.39 µM (≈ 12.5 µg/mL).

As to `FC(F)(F)c1cc(-c2cncnc2-c2ccco2)cc(C(F)(F)F)c1`, the MIC was found to be 8.65 µM (≈ 3.1 µg/mL).

For `Fc1ccccc1-c1cncnc1`, the MIC was 71.76 µM (≈ 12.5 µg/mL).

`Fc1cc(F)cc(-c2cncnc2-c2ccco2)c1` had an MIC of 24.01 µM (≈ 6.2 µg/mL).

`Fc1cc(F)cc(-c2cncnc2-c2cccs2)c1` came in with a minimal inhibitory concentration (MIC) of 45.57 µM (≈ 12.5 µg/mL).

In the case of `FC(F)(F)c1ccccc1-c1cncnc1-c1ccco1`, the MIC was found to be 43.07 µM (≈ 12.5 µg/mL).

Compound `Fc1ccc(-c2cncnc2-c2cccs2)c(F)c1` came in with an MIC of 45.57 µM (≈ 12.5 µg/mL).

With `FC(F)(F)c1cc(-c2cncnc2)cc(C(F)(F)F)c1`, the MIC is 5.13 µM (≈ 1.5 µg/mL).

As for `FC(F)(F)c1ccc(-c2cncnc2-c2cccs2)cc1`, the MIC turned out to be 40.81 µM (≈ 12.5 µg/mL).
